Values after ≈ are worked out from the molar mass of the structure shown.
Legend:
Postia placenta [1] = assay: Soil block test (AWPA E10-01, modified), SYP blocks; settings: for Average weight loss: 3 months
Protocol: (§1) For the soil block tests, the protocol listed as AWPA (American Wood Preservers' Association) standard E10-01 was used, with some modifications that are noted.
(§2) For pressure treatment, wood blocks (¾ inch cubes) were made from Southern yellow pine (SYP) or birch dried at about 40° C. to constant weight, and weighed before pressure treatment. In a typical experiment, blocks were submerged in an appropriate treatment solution in an autoclave. A vacuum of 10 to 15 inch Hg (380 to 510 torr) was applied for 30 min, followed by a pressure of 150 psi (1.034 MPa) for 1 hr. The treatment solution was then removed and a vacuum of 10 to 15 inch Hg (380 to 510 torr) was applied again to the blocks for 15 min. Excess treatment solution on the surface was allowed to evaporate (30 min in a laboratory fume hood) before the blocks were either weighed or stored in a sealed plastic bag and weighed at a later time.
(§3) For the soil block test, wood blocks were conditioned in a vented incubator at 40° C. until they reached a constant weight (16 to 18 hrs). Blocks were then autoclaved at 100° C. for 30 min under dry cycle. Soil samples with a water holding capacity of 40% were used for these tests. 60 mL of water and 92-100 g of soil were added into a 228 mL French square bottle, and autoclaved at 121° C. for 30 min. A feeder strip, ⅛″×1⅛″×1⅜″ (˜0.31 cm×2.86 cm×3.49 cm), birch for birch blocks and SYP for SYP blocks, was placed on the top of the soil. A testing block was placed on top of the feeder strip and the bottle contents inoculated with an agar strip (˜3 mm×30 mm) containing freshly grown fungus (listed in the results). For brown rot fungi (Postia placenta), SYP blocks and feeder strips were used. For white rot (Irpex lacteus), birch blocks and feeder strips were used. The bottles were loosely capped and allowed to incubate at ˜75% humidity and 25° C. for 3 months. Then the blocks were removed from the bottles and dried at 40° C. to constant weight in a vented incubator (16-18 hr). The weight of each block was determined and the percent weight loss was calculated.
(§4) Blocks were allowed to age for a week in the fume hood after treatment. Half of the blocks were subjected to leaching with water for an additional week before undergoing the soil block test. For leaching, blocks were placed in a beaker and 30 mL of water per block were added. Blocks were allowed to incubate at room temperature under constant stirring, with daily change of water for one week.
SYP blocks were pressure-treated with this solution as above (Example 2). After treatment, the blocks were divided into groups and allowed to age in the hood for either two days or 14 days. The blocks were then placed in a beaker and submerged under water (50 mL water per block), under constant stirring for two weeks. […]

Irpex lacteus [2] = assay: Soil block test (AWPA E10-01, modified), birch blocks; settings: for Average weight loss: 3 months
Protocol: as §1, §2, §3, §4

Gloeophyllum trabeum = assay: 6-well plate assay, minimal inhibitory concentration; type: cell-based; settings: Gloeophyllum trabeum, 168 h; 6-well agar plate; lowest concentration with no growth after seven days; read-out: Effectiveness at Inhibiting Wood-Rotting Fungi, BR2 (minimal inhibitory concentration)
Protocol: (§5) The minimal inhibitory concentration of fungicides against eight fungi was determined in 6-well microtiter plates. Minimal inhibitory concentration is defined as the lowest concentration at which no fungus growth is evident after seven days. A group of eight fungi were used in a screen to identify potential active ingredients to preserve wood. The eight fungi, their classification, and the growth media used to culture them are listed below:
(§6) Growth media were purchased from Difco (from Beckton Dickinson and Co., Sparks, Md.). The growth media were added to water to 2% w/v and autoclaved at 121° C. for 30 min. Autoclaved media were allowed to cool down to ˜50° C. Test chemicals were dissolved in DMSO (dimethyl sulfoxide) individually at 10 mg/mL to generate stock solutions. An appropriate amount of a stock solution was then added to the appropriate growth medium at 50° C. to make up the test media containing various concentrations of individual test chemicals. 10 mL of the medium was added to each well of a 6-well plate and allowed to solidify at room temperature. For each plate, the first well had no chemical, and the remaining five wells contained a particular test chemical at five different concentrations. Eight such plates were prepared for each chemical, using the eight media listed above for the eight test organisms.
(§7) After the media solidified and cooled, a plug (˜2 mm×2 mm) of agar growth medium with fresh grown mycelium from the appropriate fungal culture was used to inoculate each well. The plate was placed in an incubator, and the growth of the fungus monitored. After 4 to 7 days, the growth was scored manually.

Trametes versicolor = assay: as above; type: cell-based; settings: Trametes versicolor, 168 h; 6-well agar plate; lowest concentration with no growth after seven days; read-out: Effectiveness at Inhibiting Wood-Rotting Fungi, WR1 (minimal inhibitory concentration)
Protocol: as §5, §6, §7

Chaetomium globosum = assay: as above; type: cell-based; settings: Chaetomium globosum, 168 h; 6-well agar plate; lowest concentration with no growth after seven days; read-out: Effectiveness at Inhibiting Wood-Rotting Fungi, SR1 (minimal inhibitory concentration)
Protocol: as §5, §6, §7

[3] = system: Phanerochaete chrysosporium; assay: as above; type: cell-based; settings: Phanerodontia chrysosporium, 168 h; 6-well agar plate; lowest concentration with no growth after seven days; read-out: Effectiveness at Inhibiting Wood-Rotting Fungi, WR3 (minimal inhibitory concentration)
Protocol: as §5, §6, §7

Postia placenta [4] = assay: as above; type: cell-based; settings: Rhodonia placenta, 168 h; 6-well agar plate; lowest concentration with no growth after seven days; read-out: Effectiveness at Inhibiting Wood-Rotting Fungi, BR1 (minimal inhibitory concentration)
Protocol: as §5, §6, §7

Antrodia vaillantii = assay: as above; type: cell-based; settings: Fibroporia vaillantii, 168 h; 6-well agar plate; lowest concentration with no growth after seven days; read-out: Effectiveness at Inhibiting Wood-Rotting Fungi, BR3 (minimal inhibitory concentration)
Protocol: as §5, §6, §7

Irpex lacteus [5] = assay: as above; type: cell-based; settings: Irpex lacteus, 168 h; 6-well agar plate; lowest concentration with no growth after seven days; read-out: Effectiveness at Inhibiting Wood-Rotting Fungi, WR2 (minimal inhibitory concentration)
Protocol: as §5, §6, §7

SMILES: C[Si](Cn1cncn1)(c1ccc(F)cc1)c1ccc(F)cc1 [Flusilazole]
- Average weight loss (Postia placenta [1]; SYP blocks pressure-treated with 50 ppm solution in 5% acetic acid): 29%
- Average weight loss (Postia placenta [1]; SYP blocks pressure-treated with 100 ppm solution in 5% acetic acid): 19%
- Average weight loss (Postia placenta [1]; SYP blocks pressure-treated with 200 ppm solution in 5% acetic acid): 3.3%
- Protection against decay (in words) (Postia placenta [1]; SYP blocks, 200 ppm flusilazole solution): protected against decay
- Average weight loss (Irpex lacteus [2]; birch blocks pressure-treated with 50 ppm solution in 5% acetic acid): 19.5%
- Average weight loss (Irpex lacteus [2]; birch blocks pressure-treated with 100 ppm solution in 5% acetic acid): 21.7%
- Average weight loss (Irpex lacteus [2]; birch blocks pressure-treated with 200 ppm solution in 5% acetic acid): 11%
- Protection against decay (in words) (Irpex lacteus [2]; birch blocks, 200 ppm flusilazole solution): significantly protected from decay
- MIC (Gloeophyllum trabeum): 1 to 100 µg/mL (≈ 3.17 to 317 µM)
- MIC (Trametes versicolor): < 1 µg/mL
- MIC (Chaetomium globosum): < 1 µg/mL
- MIC [3]: 1 to 100 µg/mL (≈ 3.17 to 317 µM)
- MIC (Postia placenta [4]): < 1 µg/mL
- MIC (Antrodia vaillantii): < 1 µg/mL
- MIC (Irpex lacteus [5]): 1 to 100 µg/mL (≈ 3.17 to 317 µM)

Reference: patent US20060029743A1, “Wood preservatives and methods of wood preservation” (priority 2004, published 2006)
